Data as given in patent EP2975030B1, “DIHYDROPYRIDAZINE-3,5-DIONE DERIVATIVE” (Chugai Seiyaku Kabushiki Kaisha, priority 2013, dated 2014).

What was measured:
[1] = tested on: rat small-intestinal brush border membrane vesicles; assay: Inhibitory effect on 33PO4 uptake into rat small-intestinal brush border membrane vesicles (rapid filtration method); assay type: biochemical, Wistar female rat; conditions: 1 µM test compound; 33PO4 uptake into rat small-intestinal BBMVs, 60 seconds
How it was run: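 33PO4 uptake into rat small-intestinal brush border membrane vesicles measured by rapid filtration. Reactions were stopped with ice-cold buffer (110 mM NaCl, 1 mM KH2PO4, 10 mM HEPES pH 7.5), filtered and washed. Vesicle-associated radioactivity was counted by liquid scintillation.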

[2] = tested on: adenine-induced renal failure rat; assay: Suppressive effect on rise in serum phosphorus concentration of adenine-induced renal failure rat (0.1% in feed, 3 days); assay type: in vivo, Wistar male rat; conditions: feed or water, 72 h, rate of suppression of a rise in serum phosphorus concentration, 0.1% of mass concentration in feed
From the text: Test Example 5: Suppressive effect on rise in serum phosphorus concentration of adenine-induced renal failure rat Adenine was forcedly administered orally to each Wistar male rat (7-8 weeks old) to impair renal functions and thereby prepare a hyperphosphatemia model ([…], Nagano N, Burke SK, Fukushima N. Sevelamer hydrochloride prevents ectopic calcification and renal osteodystrophy in chronic renal failure rats. Kidney Int. 2003 Aug; 64 (2): 441-50). Each test compound was mixed at a ratio of 0.1% of mass concentration with feed. The animal was fed with a given amount of the feed for 3 days. A group given feed non-supplemented with a test compound was used as a reference pathological group, and an adenine-unadministered group given feed non-supplemented with a test compound was used as a normal group. 3 days after the start of administration of the test compound, blood was collected from the jugular vein, and serum was collected. Serum phosphorus concentrations were measured by the Fiske-Subbarow method. The rate of suppression of a rise in serum phosphorus concentration was determined according to the following expression: Rate (%) of suppression of a rise in serum phosphorus concentration = (1-[([…]-treatedpathologicalgroup); -(Serumphosphorusconcentrationofthenormalgroup)]/; [(Serumphosphorusconcentrationofthereferencepathologicalgroup)-(Serumphosphorusconcentrationofthenormalgroup)]) × 100 [formula] As a result, each test compound was confirmed to have a suppressive effect on a rise in serum phosphorus concentration. […]

Row | Compound | Rate of uptake inhibition (%) (1 µM) [1] | inhibition in vivo at 0.1 %, 0.1 % in feed [2]
1 | Cc1c(C#N)ncnc1-c1cc(C(F)(F)F)ccc1NC(=O)C1=C(O)[C@H](C(C)(C)C)N(C)N(Cc2ccc(OCCN3CCOCC3)c(F)c2F)C1=O [Example 270, (3S)-3-tert-Butyl-N-[2-(6-cyano-5-methylpyrimidin-4-yl)-4-(trifluoromethyl)phenyl]-1-[[2,3-difluoro-4-(2-morpholin-4-ylethoxy)phenyl]methyl]-4-hydroxy-2-methyl-6-oxo-3H-pyridazine-5-carboxamide] | 75% | 20%
2 | C[C@]12CCCN1N(Cc1ccc(OCCCCCCOC[C@H](O)CO)c(F)c1F)C(=O)C(C(=O)Nc1cnc(C(F)(F)F)nc1-c1ccc(C(F)(F)F)nc1)=C2O [Example 156, (4aR)-1-[[4-[6-[(2R)-2,3-Dihydroxypropoxy]hexoxy]-2,3-difluorophenyl]methyl]-4-hydroxy-4a-methyl-2-oxo-N-[2-(trifluoromethyl)-4-[6-(trifluoromethyl)pyridin-3-yl]pyrimidin-5-yl]-6,7-dihydro-5H-pyrrolo[1,2-b]pyridazine-3-carboxamide] | 59% | 21%
3 | C[C@]12CCCN1N(Cc1ccc(OCCCCOC[C@H](O)CO)c(F)c1F)C(=O)C(C(=O)Nc1ccc(C(F)(F)F)cc1-c1cc(C(F)(F)F)ncn1)=C2O [Example 152, (4aR)-1-[[4-[4-[(2R)-2,3-Dihydroxypropoxy]butoxy]-2,3-difluorophenyl]methyl]-4-hydroxy-4a-methyl-2-oxo-N-[4-(trifluoromethyl)-2-[6-(trifluoromethyl)pyrimidin-4-yl]phenyl]-6,7-dihydro-5H-pyrrolo[1,2-b]pyridazine-3-carboxamide] | 54% | 26%
4 | C[C@]12CCCN1N(Cc1ccc(OCCCOC[C@H](O)CO)c(F)c1F)C(=O)C(C(=O)Nc1ccc(C(F)(F)F)cc1-c1ccc(C(F)(F)F)nc1)=C2O [Example 147, (4aR)-1-[[4-[3-[(2R)-2,3-Dihydroxypropoxy]propoxy]-2,3-difluorophenyl]methyl]-4-hydroxy-4a-methyl-2-oxo-N-[4-(trifluoromethyl)-2-[6-(trifluoromethyl)pyridin-3-yl]phenyl]-6,7-dihydro-5H-pyrrolo[1,2-b]pyridazine-3-carboxamide] | 57% | 35%
5 | C[C@]12CCCN1N(Cc1ccc(C#CCCCC(=O)O)c(F)c1F)C(=O)C(C(=O)Nc1ccc(C(F)(F)F)cc1-c1cc(C(F)(F)F)ncn1)=C2O [Example 129, 6-[4-[[(4aR)-4-Hydroxy-4a-methyl-2-oxo-3-[[4-(trifluoromethyl)-2-[6-(trifluoromethyl)pyrimidin-4-yl]phenyl]carbamoyl]-6,7-dihydro-5H-pyrrolo[1,2-b]pyridazin-1-yl]methyl]-2,3-difluorophenyl]hex-5-ynoic acid] | 63% | 17%
6 | CN1[C@@H](C(C)(C)C)C(O)=C(C(=O)Nc2ccc(Cl)cc2-c2cc(C(F)(F)F)ncn2)C(=O)N1Cc1ccc(OCCN2CCOCC2)c(F)c1F [Example 265, (3S)-3-tert-Butyl-N-[4-chloro-2-[6-(trifluoromethyl)pyrimidin-4-yl]phenyl]-1-[[2,3-difluoro-4-(2-morpholin-4-ylethoxy)phenyl]methyl]-4-hydroxy-2-methyl-6-oxo-3H-pyridazine-5-carboxamide] | 52% | 11%
7 | CN1[C@@H](C(C)(C)C)C(O)=C(C(=O)Nc2ccc(Cl)cc2-c2ccc(C(F)(F)F)nc2)C(=O)N1Cc1ccc(OCCN2CCOCC2)c(F)c1F [Example 267, (3S)-3-tert-Butyl-N-[4-chloro-2-[6-(trifluoromethyl)pyridin-3-yl]phenyl]-1-[[2,3-difluoro-4-(2-morpholin-4-ylethoxy)phenyl]methyl]-4-hydroxy-2-methyl-6-oxo-3H-pyridazine-5-carboxamide] | 71% | 18%
8 | CN1N(Cc2ccc(OCCN3CCOCC3)c(F)c2F)C(=O)C(C(=O)Nc2ccc(C(F)(F)F)cc2-c2cc(C(F)(F)F)ncn2)=C(O)C12CCC2 [Example 317, 6-[[2,3-Difluoro-4-(2-morpholin-4-ylethoxy)phenyl]methyl]-9-hydroxy-5-methyl-7-oxo-N-[4-(trifluoromethyl)-2-[6-(trifluoromethyl)pyrimidin-4-yl]phenyl]-5,6-diazaspiro[3.5]non-8-ene-8-carboxamide] | 57% | 22%
9 | CN1[C@@H](C(C)(C)C)C(O)=C(C(=O)Nc2ccc(C(F)(F)F)cc2-c2cc(C(F)(F)F)ncn2)C(=O)N1Cc1ccc(OCCN2CCOCC2)c(F)c1F [Example 264, (3S)-3-tert-Butyl-1-[[2,3-difluoro-4-(2-morpholin-4-ylethoxy)phenyl]methyl]-4-hydroxy-2-methyl-6-oxo-N-[4-(trifluoromethyl)-2-[6-(trifluoromethyl)pyrimidin-4-yl]phenyl]-3H-pyridazine-5-carboxamide] | 48% | 15%
10 | C[C@]12CCCN1N(Cc1ccc(CN3CCOCC3)c(F)c1F)C(=O)C(C(=O)Nc1ccc(C(F)(F)F)cc1-c1ccc(C(F)(F)F)nc1)=C2O.Cl [Example 164, (4aR)-1-[[2,3-Difluoro-4-(morpholin-4-ylmethyl)phenyl]methyl]-4-hydroxy-4a-methyl-2-oxo-N-[4-(trifluoromethyl)-2-[6-(trifluoromethyl)pyridin-3-yl]phenyl]-6,7-dihydro-5H-pyrrolo[1,2-b]pyridazine-3-carboxamide; hydrochloride] | 64% | 14%
11 | CN1N(Cc2ccc(OCCN3CCOCC3)c(F)c2F)C(=O)C(C(=O)Nc2ccc(C(F)(F)F)cc2-c2cc(C(F)(F)F)ncn2)=C(O)C12CCCC2 [Example 318, 7-[[2,3-Difluoro-4-(2-morpholin-4-ylethoxy)phenyl]methyl]-10-hydroxy-6-methyl-8-oxo-N-[4-(trifluoromethyl)-2-[6-(trifluoromethyl)pyrimidin-4-yl]phenyl]-6,7-diazaspiro[4.5]dec-9-ene-9-carboxamide] | 43% | 32%
12 | C[C@]12CCCN1N(Cc1ccc(OCCN3CCOCC3)c(F)c1F)C(=O)C(C(=O)Nc1ccc(C(F)(F)F)cc1-c1cc(C(F)(F)F)ncn1)=C2O [Example 157, (4aR)-1-[[2,3-Difluoro-4-(2-morpholin-4-ylethoxy)phenyl]methyl]-4-hydroxy-4a-methyl-2-oxo-N-[4-(trifluoromethyl)-2-[6-(trifluoromethyl)pyrimidin-4-yl]phenyl]-6,7-dihydro-5H-pyrrolo[1,2-b]pyridazine-3-carboxamide] | 89% | 30%
13 | CN1N(Cc2ccc(OCCCCC(=O)O)c(F)c2F)C(=O)C(C(=O)Nc2ccc(C(F)(F)F)cc2-c2cc(C(F)(F)F)ncn2)=C(O)C12CCCC2 [Example 333, 5-[2,3-Difluoro-4-[[10-hydroxy-6-methyl-8-oxo-9-[[4-(trifluoromethyl)-2-[6-(trifluoromethyl)pyrimidin-4-yl]phenyl]carbamoyl]-6,7-diazaspiro[4.5]dec-9-en-7-yl]methyl]phenoxy]pentanoic acid] | 29% | 8%
14 | COCCN(C)CCOc1ccc(CN2C(=O)C(C(=O)Nc3ccc(C(F)(F)F)cc3-c3cc(C(F)(F)F)ncn3)=C(O)C3(CCCC3)N2C)c(F)c1F [Example 14, 7-[[2,3-Difluoro-4-[2-[2-methoxyethyl(methyl)amino]ethoxy]phenyl]methyl]-10-hydroxy-6-methyl-8-oxo-N-[4-(trifluoromethyl)-2-[6-(trifluoromethyl)pyrimidin-4-yl]phenyl]-6,7-diazaspiro[4.5]dec-9-ene-9-carboxamide] | 29% | 39%
15 | Cc1c(C#N)ncnc1-c1cc(C(F)(F)F)ccc1NC(=O)C1=C(O)[C@@]2(C)CCCN2N(Cc2ccc(OCCN3CCOCC3)c(F)c2F)C1=O [Example 22, (4aR)-N-[2-(6-Cyano-5-methylpyrimidin-4-yl)-4-(trifluoromethyl)phenyl]-1-[[2,3-difluoro-4-(2-morpholin-4-ylethoxy)phenyl]methyl]-4-hydroxy-4a-methyl-2-oxo-6,7-dihydro-5H-pyrrolo[1,2-b]pyridazine-3-carboxamide] | 50% | 26%
16 | COCCN(C)CCOc1ccc(CN2C(=O)C(C(=O)Nc3ccc(C(F)(F)F)cc3-c3cc(C(F)(F)F)ncn3)=C(O)C3(CCC3)N2C)c(F)c1F [Example 13, 6-[[2,3-Difluoro-4-[2-[2-methoxyethyl(methyl)amino]ethoxy]phenyl]methyl]-9-hydroxy-5-methyl-7-oxo-N-[4-(trifluoromethyl)-2-[6-(trifluoromethyl)pyrimidin-4-yl]phenyl]-5,6-diazaspiro[3.5]non-8-ene-8-carboxamide] | 58% | 25%
